Data: patent US6982252B2, “Inhibition of vacuolar proton ATPase activity and/or the modulation of acidic organelle function sensitizes cells to radiation, chemotherapy and biological agents” (Memorial Sloan-Kettering Cancer Center, priority 2000, dated 2006)
Values joined by “and” are separate entries in the source; they are usually repeats but may differ in a detail not shown here. Equal entries are not always repeated.

Columns and labels:
F and P-type ATPases = details: cited from earlier work
[1] = system: LoVo (human colon adenocarcinoma); assay: Clonogenic survival (surviving fraction) of LoVo cells after radiation or chemotherapeutic agent; type: cell-based
Description: (§1) MCF-7 (human breast adenocarcinoma), LoVo (human colon adenocarcinoma) and LNCaP (human prostate carcinoma) were obtained from the American Type Culture Collection. Cells were maintained as described in Paglin et al., 1997, Biochem. Biophs. Res. Comm. 237:678-684). Irradiation was carried out 48 hours post-plating (T0) at room temperature using a Cs-137 irradiator (Sheperd Mark-I, model 68, SN643) at a dose rate of 2.43-2.32 Gy/min. Bovine aortic endothelial cells were grown and treated with H2O2 as described in Haimovitz-Friedman et al., 1994, J. Exp. Med. 180:525-535 and Verhij et al., 1996, Nature 380:75-79. Phorbol 12-myristate 13-acetate (PMA; Alexis Biochemicals Corp., San Diego, Calif.) was dissolved in dimethyl sulfoxide (DMSO) and added to cells for the duration of one hour. The final DMSO concentration was 0.03%. The cells were then rinsed with warm growth medium before being returned to the incubator for an additional 48 hours.
(§2) Cells were plated in growth medium at a density of 30-90 cells per square centimeter and irradiated 22 hours later. Each experimental condition was done in quintet or triplicate. Cells were irradiated at room temperature in Cs-137 Irradiator (Sheperd Mark-I, Model 68, SN 643) at a rate of 2.43-2.32 Gy/min. […] For determination of their red to green ratio, colonies were processed as described above. For determination of surviving fractions cells were stained with crystal violet and colonies containing 50 cells or more were counted with a dissecting microscope. The surviving fraction was defined as the ratio between the plating efficiencies of irradiated and non-irradiated cells and was calculated at each dose level according to Hall and Phill (1994, […] for the Radiologist, 4th Edition, J. Lippincott Co., Philadelphia).

[2] = system: MCF-7 (human breast adenocarcinoma); assay: Clonogenic survival (surviving fraction) of MCF-7 cells after radiation or chemotherapeutic agent; type: cell-based
Description: as §1, §2

[3] = Bafilomycin A1 8 nM, no radiation

bafilomycin A1
concentration range at which F and P-type ATPases activities are affected (F and P-type ATPases): μM range | decrease of survival of cells exposed to Adriamycin ([1]; 2 nM bafilomycin, 100 nM Adriamycin): 22% | decrease of survival ([1]; 2 nM bafilomycin, 3 Gy, Table 11 and Table 12): 43% and 24% | decrease of resistance to Adriamycin ([1]; 2 nM bafilomycin, Adriamycin 100 nM, 48 hours): 35% | decrease of survival ([1]; 2 nm bafilomycin A1, 2 Gy): 25% | decrease of survival ([1]; 2 nm bafilomycin A1, 3 Gy): 30% | Surviving Fraction 0 Gy ([1]; Table 11, Bafilomycin A1 2 nM): 1.14 ± 0.09 | Surviving Fraction 3 Gy ([1]; Table 11, Bafilomycin A1 2 nM, 3 Gy): 0.24 ± 0.08 | Surviving Fraction 0 Gy ([1]; Table 11, Bafilomycin A1 4 nM): 1.01 ± 0.03 | Surviving Fraction 3 Gy ([1]; Table 11, Bafilomycin A1 4 nM, 3 Gy): 0.23 ± 0.02 | Surviving Fraction 0 Gy ([1]; Table 11, Bafilomycin A1 8 nM): 0.84 ± 0.12 | Surviving Fraction 3 Gy ([1]; Table 11, Bafilomycin A1 8 nM, 3 Gy): 0.19 ± 0.04 | Surviving Fraction 0 Gy ([1]; Table 12, Bafilomycin 2 nM): 0.92 ± 0.05 | Surviving Fraction 3 Gy ([1]; Table 12, Bafilomycin 2 nM, 3 Gy): 0.16 ± 0.01 | Surviving Fraction 0 Gy ([1]; Table 12, Bafilomycin 4 nM): 0.84 ± 0.03 | Surviving Fraction 3 Gy ([1]; Table 12, Bafilomycin 4 nM, 3 Gy): 0.08 ± 0.02 | Surviving Fraction 2 nM Bafilomycin ([1]; Table 13, 2 nM Bafilomycin, Dose 0 Gy): 0.78 ± 0.05 | Surviving Fraction 2 nM Bafilomycin ([1]; Table 13, 2 nM Bafilomycin, Dose 2 Gy): 0.24 ± 0.03 | Surviving Fraction 2 nM Bafilomycin ([1]; Table 13, 2 nM Bafilomycin, Dose 3 Gy): 0.11 ± 0.03 | Surviving Fraction 2 nM Bafilomycin ([1]; Table 14, 2 nM Bafilomycin + Adriamycin 50 nM): 0.73 ± 0.08 | Surviving Fraction 2 nM Bafilomycin ([1]; Table 14, 2 nM Bafilomycin + Adriamycin 100 nM): 0.60 ± 0.05 | Surviving Fraction 2 nM Bafilomycin ([1]; Table 14, 2 nM Bafilomycin + Adriamycin 150 nM): 0.38 ± 0.03 | Surviving Fraction 2 nM Bafilomycin ([1]; Table 14, 2 nM Bafilomycin, Adriamycin 0 nM): 0.93 ± 0.05 | survival, Adriamycin 100 nM ([1]; Table 17, Bafilomycin A1 2 nM + Adriamycin 100 nM, 48 hours): 0.65 ± 0.05 | survival (head of column empty) ([1]; Table 17, Bafilomycin A1 2 nM alone, 48 hours): 0.86 ± 0.04 | survival, Adriamycin 100 nM ([1]; Table 17, Bafilomycin A1 4 nM + Adriamycin 100 nM, 48 hours): 0.4 ± 0.01 | survival (head of column empty) ([1]; Table 17, Bafilomycin A1 4 nM alone, 48 hours): 0.61 ± 0.04 | cell survival, Bafilomycin (2 nM) ([1]; Table 19, Bafilomycin 2 nM + Etoposide 0.05 μg/ml): 0.59 ± 0.08 | cell survival, Bafilomycin (2 nM) ([1]; Table 19, Bafilomycin 2 nM, Etoposide 0 μg/ml): 1.16 ± 0.07 | decrease of survival in the presence of etoposide ([1]; bafilomycin 2 nM, etoposide 0.05 μg/ml): 25% | reduction of survival of irradiated cells ([2]; 2 nM bafilomycin A1, 300 cGy, two separate experiments): 45% and 32% | Surviving fraction in the presence of Baf A1 (2nM) ([2]; Baf A1 2nM added at irradiation for 24 hours, 2 Gy): 0.51 ± 0.07 | Surviving fraction in the presence of Baf A1 (2nM) ([2]; Baf A1 2nM added at irradiation for 24 hours, 3 Gy): 0.23 ± 0.05 | Surviving fraction in the presence of Baf A1 (2nM) ([2]; Baf A1 2nM for 24 hours, 0 Gy, listed as Baf A1): 0.9 ± 0.14 | Surviving fraction in the presence of Baf A1 (2nM) ([2]; Baf A1 2nM for 24 hours, 0 Gy, listed as bafilomycin A1): without significantly affecting | Normalized Surviving Fraction ([2]; Bafilomycin A1 8 nM, 2 Gy): 0.47 | Plating Efficiency ([2]; Bafilomycin A1 8 nM, 2 Gy): 43 ± 7.7 | Surviving Fraction ([2]; Bafilomycin A1 8 nM, 2 Gy): 0.26 | Normalized Surviving Fraction ([2]; Bafilomycin A1 8 nM, 4 Gy): 0.11 | Plating Efficiency ([2]; Bafilomycin A1 8 nM, 4 Gy): 21 ± 3.4 | Surviving Fraction ([2]; Bafilomycin A1 8 nM, 4 Gy): 0.06 | Normalized Surviving Fraction ([2]; Bafilomycin A1 8 nM, 6 Gy): 0.23 | Plating Efficiency ([2]; Bafilomycin A1 8 nM, 6 Gy): 7 ± 3 | Surviving Fraction ([2]; Bafilomycin A1 8 nM, 6 Gy): 0.01 | Normalized Surviving Fraction [2, 3]: 1 | Plating Efficiency [2, 3]: 98 ± 12 | Surviving Fraction [2, 3]: 0.59 | decrease of survival ([2]; MCF-7, 2 nM bafilomycin, 100 nM adriamycin): 34% | Surviving Fraction ([2]; Table 4, 2 nM bafilomycin A1, 2 Gy): 0.51 ± 0.07 | Surviving Fraction ([2]; Table 4, 2 nM bafilomycin A1, 4 Gy): 0.17 ± 0.02 | Surviving Fraction ([2]; Table 4, 2 nM bafilomycin A1, 6 Gy): 0.02 ± 0.003 | decrease of survival following irradiation ([2]; Table 4, 2 nM bafilomycin A1, 200 cGy): 27% | decrease of survival following irradiation ([2]; Table 4, 2 nM bafilomycin A1, 400 cGy): 37% | decrease of cell survival following irradiation ([2]; Table 5, 2 nM bafilomycin A1, 200 cGy): 19% | decrease of cell survival following irradiation ([2]; Table 5, 2 nM bafilomycin A1, 400 cGy): 13% | Surviving Fraction ([2]; Table 5, 2 nM bafilomycin A1, Radiation Dose (cGy) 0): 1 ± 0.07 | Surviving Fraction ([2]; Table 5, 2 nM bafilomycin A1, Radiation Dose (cGy) 2): 0.57 ± 0.04 | Surviving Fraction ([2]; Table 5, 2 nM bafilomycin A1, Radiation Dose (cGy) 4): 0.27 ± 0.01 | Surviving Fraction ([2]; Table 5, 2 nM bafilomycin A1, Radiation Dose (cGy) 6): 0.05 ± 0.01 | reduction of survival ([2]; Table 6, 2 nM bafilomycin, 3 Gy): 37% | Surviving Fraction ([2]; Table 6, 2 nM bafilomycin, X radiated 3 Gy): 0.28 ± 0.03 | Surviving Fraction ([2]; Table 6, 4 nM bafilomycin, C non-irradiated control): 0.7 ± 0.03 | Surviving Fraction ([2]; Table 6, 4 nM bafilomycin, X radiated 3 Gy): 0.2 ± 0.03 | Surviving Fraction ([2]; Table 6, 8 nM bafilomycin, C non-irradiated control): 0.66 ± 0.05 | Surviving Fraction ([2]; Table 6, 8 nM bafilomycin, X radiated 3 Gy): 0.14 ± 0.02 | Surviving Fraction ([2]; Table 6, 16 nM bafilomycin, C non-irradiated control): 0.52 ± 0.05 | Surviving Fraction ([2]; Table 6, 16 nM bafilomycin, X radiated 3 Gy): 0.12 ± 0.03 | Surviving Fraction ([2]; Table 7, 2 nM bafilomycin A1, C non-irradiated): does not significantly affect | Surviving Fraction ([2]; Table 7, 2 nM bafilomycin A1, C non-irradiated, listed as bafilomycin Al): 0.92 ± 0.06 | Surviving Fraction ([2]; Table 7, 2 nM bafilomycin A1, X radiated 3 Gy): 0.22 ± 0.04 | reduction of cell survival ([2]; Table 7, 2 nM bafilomycin, 300 cGy): 49% | Surviving Fraction ([2]; Table 7, 4 nM bafilomycin A1, C non-irradiated): 0.79 ± 0.04 | Surviving Fraction ([2]; Table 7, 4 nM bafilomycin A1, X radiated 3 Gy): 0.16 ± 0.04 | Surviving Fraction ([2]; Table 7, 8 nM bafilomycin A1, C non-irradiated): 0.60 ± 0.08 | Surviving Fraction ([2]; Table 7, 8 nM bafilomycin A1, X radiated 3 Gy): 0.12 ± 0.02 | Surviving Fraction ([2]; Table 7, 16 nM bafilomycin A1, C non-irradiated): 0.35 ± 0.05 | Surviving Fraction ([2]; Table 7, 16 nM bafilomycin A1, X radiated 3 Gy): 0.09 ± 0.04 | survival (head of column empty) ([2]; Table 15, MCF-7, Bafilomycin 2 nM alone): 0.95 ± 0.1 | survival, column Adriamycin ([2]; Table 15, MCF-7, Bafilomycin 4 nM + 100 nM adriamycin): 0.35 ± 0.05 | survival (head of column empty) ([2]; Table 15, MCF-7, Bafilomycin 4 nM alone): 0.61 ± 0.05 | cell survival, Bafilomycin A1 (2 nM) ([2]; Table 18, MCF-7, Bafilomycin A1 2 nM + Etoposide 0.05 μg/ml): 0.36 ± 0.08 | reduction of the surviving fraction ([2]; bafilomycin A1 for 24 hours following irradiation with 2 and 3 Gy): 30%-40%
